Consider 20 molecules from PubChem BioAssay (NCI).

Molecules are shown by their SMILES.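 Growth conditions: 96-well plates. Treatment: test compound, 48 hours, 5 concentrations. Analysis: linear interpolation between bracketing concentrations; unreached endpoints set to highest concentration. GI50 marks 50% less growth. TGI is the concentration that stops growth completely.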 Bounds are passed on as bounds.

Common to all, as to assay: NCI anticancer screen, dose series, 48 h
The subject of assay [1] is HCT-116 colon.
In assay [2] the test system is K-562 leukemia.
The subject of assay [3] is SK-MEL-2 melanoma.
The test system of assay [4] is LOX IMVI melanoma.
Assay [5] relates to MALME-3M melanoma.
Assay [6] has as its system HOP-62 NSCLC.
The test system of assay [7] is NCI-H460 lung.
Assay [8] relates to ACHN renal.
Assay [9] concerns M14 melanoma.
The test system of assay [10] is A549 NSCLC.

In the case of `O=C(CO[N+](=O)[O-])OCC(=O)c1ccccc1`, the TGI in assay [1], in assay [2], in assay [3], in assay [4], in assay [5] and in [6] was greater than 100 µM in each case. For the same molecule, the TGI in [7], in assay [8], in [9] and in assay [10] was greater than 100 µM throughout.

As for `CN1C/C(=C\c2ccco2)c2nc(N)nc(-c3ccco3)c2C1`, the TGI in assay [1], in [2], in assay [3], in assay [4], in assay [5] and in assay [6] was greater than 100 µM throughout. Further, the TGI in assay [7], in assay [8], in [9] and in assay [10] was greater than 100 µM in each case.

Regarding `O=C(NCc1cccnc1)c1ccc([N+](=O)[O-])o1`, the GI50 was 1.42 µM in [1]; 2.06 µM in assay [2]; 4.91 µM in assay [3]; 1.2 µM in assay [4]; 1.56 µM in assay [5]; 1.3 µM in assay [6]. The GI50 in assay [7] was 1.62 µM; in [8], 3.56 µM; in [9] it was 1.42 µM; in assay [10], 2.54 µM. In addition, the TGI in assay [1] was 13.4 µM; in [2] it was greater than 32.5 µM; in assay [3], 14.4 µM; in [4], 6.58 µM; in assay [5] it was 7.88 µM; in assay [6] it was 4.79 µM. In addition, the TGI is 3.73 µM in assay [7], greater than 15.5 µM in assay [8], 5.12 µM in [9] and 7.28 µM in [10].

Turning to `O=c1cccccc1[O-].O=c1cccccc1[O-].O=c1cccccc1[O-].[Dy+3]`, the TGI was 41.4 µM in assay [1]; greater than 100 µM in assay [2]; greater than 100 µM in assay [3]; greater than 100 µM in [4]; greater than 100 µM in assay [5]; 99.9 µM in assay [6]. Also, the TGI in assay [7], in assay [8], in assay [9] and in assay [10] was greater than 100 µM each time. Moreover, the GI50 in [6] was 33 µM.

On to `CCNc1nc(-c2ccc(Cl)c(OC)c2)c(-c2ccnc(NCCNS(=O)(=O)c3ccc(Cl)cc3)n2)s1`, for which the GI50 in assay [1] was 2.65 µM; in assay [2], 3.17 µM; in assay [3], 2 µM; in assay [4], 2.32 µM; in [5], 2.2 µM; in [6] it was 3.2 µM. Also, the GI50 was 3.2 µM in assay [7], 3.14 µM in [8], 3.82 µM in assay [9] and 3.57 µM in assay [10]. For the same molecule, the TGI in [1] was 6.25 µM; in assay [2], greater than 100 µM; in [3] it was 4.41 µM; in [4] it was 5.69 µM; in [5], 7.39 µM; in assay [6], 7.69 µM. Moreover, the TGI in assay [7] was greater than 100 µM; in assay [8] it was greater than 100 µM; in assay [9] it was greater than 100 µM; in assay [10], 53.6 µM.

In the case of `CCc1c[nH]c2ncnc(N3CC[C@](N)(CNC(=O)c4ccc(F)cc4F)C3)c12`, the GI50 in [1] was 8.91 µM; in [2], greater than 54.1 µM; in assay [3], 28 µM; in [4], 26.2 µM; in assay [5] it was 3.4 µM; in assay [6], 12.8 µM. Moreover, the GI50 in assay [7] is 1.78 µM; in [8] it was 9.46 µM; in assay [9], 15.6 µM; in assay [10], 7.36 µM. Besides, the TGI is greater than 100 µM in [1]; greater than 100 µM in assay [2]; greater than 100 µM in assay [3]; greater than 100 µM in assay [4]; 39.5 µM in assay [5]; greater than 100 µM in [6]. The TGI was greater than 100 µM in assay [7], greater than 100 µM in assay [8], greater than 100 µM in assay [9] and greater than 95.5 µM in assay [10].

`CN1CCN(Cc2ccc(NC(=O)c3cncc(C#Cc4cnc5cccnn45)c3)cc2C(F)(F)F)CC1`: the GI50 was 0.711 µM in [1]; 0.005 µM in assay [2]; 0.639 µM in assay [3]; 1.07 µM in [4]; 0.595 µM in [5]; 1.36 µM in assay [6]. The GI50 was 1.27 µM in [7], 1.43 µM in assay [8], 1.02 µM in [9] and 1.57 µM in assay [10]. For the same molecule, the TGI in assay [1] was found to be 6.04 µM; in assay [2] it was 21.6 µM; in assay [3] it was 1.71 µM; in assay [4], 2.98 µM; in [5], 1.42 µM; in assay [6] it was 5.08 µM. The TGI in assay [7] was determined as 3.44 µM; in [8], 4.9 µM; in assay [9], 3.34 µM; in [10], 5.05 µM.

Consider `Cn1c(=O)c(Oc2ccc(F)cc2F)cc2cnc(NC3CCC(O)CC3)nc21` (stereo unspecified), for which the GI50 in [1], in assay [2], in assay [3], in assay [4], in assay [5] and in [6] was greater than 25 µM each time. Moreover, the GI50 in assay [7], in assay [8], in assay [9] and in assay [10] was greater than 25 µM each time. The TGI in assay [1], in assay [2], in assay [3], in assay [4], in assay [5] and in assay [6] was greater than 25 µM throughout. Also, the TGI in assay [7], in [8], in assay [9] and in assay [10] was greater than 25 µM each time.

Consider `CCC(=C(c1ccc(OCCN(CC)CC)cc1)c1ccc(OCCN(CC)CC)cc1)c1ccc(Cl)cc1`, for which the GI50 in assay [1] was 0.508 µM; in assay [2] it was 0.156 µM; in assay [3] it was 0.634 µM; in assay [4], 0.55 µM; in [5], 0.567 µM; in [6] it was 0.598 µM. Moreover, the GI50 is 0.619 µM in assay [7], 0.596 µM in assay [8], 0.585 µM in [9] and 0.638 µM in assay [10]. For the same molecule, the TGI in assay [1] came out at 0.995 µM; in assay [2], 0.898 µM; in assay [3] it was 1.27 µM; in [4], 1.03 µM; in assay [5] it was 1.07 µM; in assay [6] it was 1.28 µM. In addition, the TGI in [7] came out at 1.17 µM; in assay [8], 1.08 µM; in assay [9], 1.11 µM; in [10], 1.31 µM.

Take `Nc1ccc2ncc(Nc3ccc(Cl)c(Cl)c3)nc2c1`: the TGI was 57.3 µM in assay [1]; greater than 100 µM in assay [2]; greater than 100 µM in assay [3]; greater than 100 µM in assay [4]; 55.8 µM in [5]; 84.3 µM in [6]. Besides, the TGI in [7] was greater than 100 µM; in assay [8] it was 86.3 µM; in [9] it was 94.1 µM; in [10], greater than 100 µM.

For the molecule `O=C(/C=C/c1ccc(OCC(=O)N2CCN(c3ccccc3)CC2)cc1)c1ccccc1`, the TGI in assay [1] was greater than 56.6 µM; in [2] it was greater than 43 µM; in assay [3] it was greater than 60.4 µM; in assay [4], 10.7 µM; in assay [5], greater than 58.2 µM; in assay [6], greater than 100 µM. Also, the TGI is greater than 87 µM in assay [7], greater than 89.6 µM in assay [8], greater than 100 µM in [9] and greater than 100 µM in [10].

For the molecule `C=CCCC1(CCP(=O)(c2ccccc2)c2ccccc2)OCCO1`, the TGI in assay [1], in [2], in [3], in [4], in [5] and in assay [6] was greater than 100 µM each time. The TGI in assay [7], in [8], in assay [9] and in assay [10] was greater than 100 µM each time.

For `CC(C)(CCc1nc2ccccc2[nH]1)C(=O)O`, the TGI in assay [1], in assay [2], in [3], in assay [4], in assay [5] and in assay [6] was greater than 100 µM each time. Moreover, the TGI in assay [7], in assay [8], in assay [9] and in assay [10] was greater than 100 µM in each case.

Regarding `CS(=O)(=O)Nc1ccc(Nc2c3ccccc3nc3cc(Cl)ccc23)cc1`, the GI50 in [1] was 0.84 µM; in assay [2] it was 2.11 µM; in assay [3] it was 9.16 µM; in assay [4], 0.406 µM; in assay [5], 1.96 µM; in [6], 0.958 µM. In addition, the GI50 in [7] is 0.0962 µM; in assay [8], 0.343 µM; in assay [9] it was 0.812 µM; in [10], 0.188 µM. Further, the TGI in assay [1] is 13.1 µM; in [2] it was greater than 48.6 µM; in assay [3], 22.7 µM; in assay [4], 4.79 µM; in assay [5], 12.3 µM; in assay [6], 18 µM. Also, the TGI in assay [7] amounted to 11 µM; in [8], 9.57 µM; in assay [9], 15.1 µM; in [10], 12.1 µM.

In the case of `COc1cccc(OC)c1/C=N\N1C(=O)c2ccccc2C1=O`, the TGI in assay [1] is 87.6 µM; in [2], greater than 100 µM; in assay [3], greater than 100 µM; in [4], greater than 100 µM; in assay [5], greater than 100 µM; in [6], greater than 100 µM. Besides, the TGI was greater than 100 µM in assay [7], greater than 100 µM in assay [8], 58.2 µM in [9] and greater than 100 µM in assay [10].

Regarding `COc1cc(-c2nn(-c3cccc(NC(=O)c4cccc(C(F)(F)F)c4)c3)cc2-c2ccncc2)ccc1Cl`, the GI50 in assay [1] was 1.67 µM; in assay [2], 1.4 µM; in assay [3] it was 1.56 µM; in assay [4] it was 1.39 µM; in assay [5], 1.89 µM; in [7], 1.45 µM. For the same molecule, the GI50 was 1.89 µM in assay [8], 1.63 µM in [9] and 1.87 µM in [10]. Further, the TGI in [1] is greater than 50 µM; in assay [2] it was greater than 50 µM; in assay [3], greater than 50 µM; in assay [4], greater than 50 µM; in [5], greater than 50 µM; in assay [7] it was 9.27 µM. Moreover, the TGI in assay [8], in assay [9] and in assay [10] was greater than 50 µM in each case.

In the case of `O=[N+]([O-])C1(CO)COC(CCc2ccccc2)OC1` (stereo unspecified), the TGI in [1], in assay [2], in assay [3], in [4], in [5] and in assay [6] was greater than 100 µM each time. In addition, the TGI in [7], in assay [8], in assay [9] and in assay [10] was greater than 100 µM each time.

Regarding `Cc1c(C(=O)C/C(=N/NC(=O)CC#N)C(N)=O)[n+](=O)c2ccccc2n1[O-]`, the TGI in [1] is 94 µM; in [2] it was greater than 100 µM; in assay [3] it was greater than 100 µM; in assay [4], greater than 100 µM; in assay [5], greater than 100 µM; in assay [6], greater than 100 µM. The TGI in assay [7], in assay [8], in assay [9] and in assay [10] was greater than 100 µM throughout.

Consider `CC(C)=NO.CC(C)=NO.CC(C)=NO.CC(C)=NO.[Ti]`, for which the GI50 in [2], in assay [3], in assay [4], in assay [5], in assay [6] and in [7] was greater than 100 µM each time. The GI50 in assay [8], in assay [9] and in assay [10] was greater than 100 µM each time. For the same molecule, the TGI in assay [2], in [3], in [4], in assay [5], in assay [6] and in [7] was greater than 100 µM throughout. Besides, the TGI in [8], in [9] and in assay [10] was greater than 100 µM each time.

In the case of `COC(=O)C1=C(C)N(NC(=O)Nc2ccccc2)C2(N)N(NC(=O)Nc3ccccc3)C(C)=C(C(=O)OC)C12C(=O)OC` (stereo unspecified), the TGI in assay [1], in [2], in assay [3], in assay [4], in [5] and in assay [7] was greater than 100 µM throughout. In addition, the TGI in assay [8], in assay [9] and in assay [10] was greater than 100 µM in each case.
